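How tested: cells in 96-well plates exposed to compound for 48 hours at five concentrations. Here, GI50 denotes the concentration required for 50% inhibition of growth. At the TGI there is no net growth.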
Tests used:
Assay in all cases: NCI-60 cell line screen, 48 h
CAKI-1 renal = tested on: CAKI-1 renal
EKVX NSCLC = tested on: EKVX NSCLC
K-562 leukemia = tested on: K-562 leukemia
MOLT-4 leukemia = tested on: MOLT-4 leukemia
NCI-H23 lung = tested on: NCI-H23 lung
RXF 393 renal = tested on: RXF 393 renal
SF-295 CNS = tested on: SF-295 CNS
SF-539 CNS = tested on: SF-539 CNS
UO-31 renal = tested on: UO-31 renal
SNB-75 CNS = tested on: SNB-75 CNS

SMILES | TGI (CAKI-1 renal) [µM] | TGI (EKVX NSCLC) [µM] | TGI (K-562 leukemia) [µM] | TGI (MOLT-4 leukemia) [µM] | TGI (NCI-H23 lung) [µM] | TGI (RXF 393 renal) [µM] | TGI (SF-295 CNS) [µM] | TGI (SF-539 CNS) [µM] | TGI (UO-31 renal) [µM] | TGI (SNB-75 CNS) [µM] | GI50 (CAKI-1 renal) [µM] | GI50 (MOLT-4 leukemia) [µM] | GI50 (NCI-H23 lung) [µM] | GI50 (SF-539 CNS) [µM] | GI50 (SNB-75 CNS) [µM] | GI50 (UO-31 renal) [µM] | GI50 (K-562 leukemia) [µM] | GI50 (SF-295 CNS) [µM]
CSC(SC)=C1C(=O)NN=C1C | > 100 | > 100 | > 100 | > 100 | > 100 | > 100 | > 100 | > 100 | > 100 | – | – | – | – | – | – | – | – | –
Cc1ccc(-c2sc(-c3ccc(C)cc3)c3c2C2CCC3C2)cc1 | > 50 | > 50 | > 50 | > 50 | > 50 | > 50 | > 50 | > 50 | > 50 | – | – | – | – | – | – | – | – | –
O=[N+]([O-])c1ccc(Cl)cc1-n1nc(-c2ccccc2)cc1-c1ccccc1 | > 100 | > 100 | > 100 | > 100 | > 100 | – | > 100 | > 100 | > 100 | > 100 | – | – | – | – | – | – | – | –
Cc1ccc(/C=C2\N=C(N3CCCCC3)NC2=O)cc1 | > 100 | > 100 | – | > 100 | > 100 | > 100 | > 100 | > 100 | > 100 | – | – | – | – | – | – | – | – | –
COc1cc([C@@H]2c3cc4c(cc3[C@H](OC3OC5COC(C(C)C)OC5C(O)C3O)C3COC(=O)[C@@H]32)OCO4)cc(OC)c1O (stereo not given in full) | 19.2 | 47.5 | > 100 | > 100 | 15.4 | 17.2 | 21.7 | 8.18 | 22.3 | – | – | – | – | – | – | – | – | –
Cc1ccc(/C=C2\CN(C)CC3C(c4ccc(C)cc4)=C(C#N)C(=O)NC23)cc1 (stereo not given) | > 50 | > 50 | > 50 | > 50 | > 50 | > 50 | > 50 | – | – | – | – | – | – | – | – | – | – | –
O=C1C=C(N2CCCC2)C=C(N2CCCC2)C1 | > 100 | > 100 | > 100 | > 100 | > 100 | > 100 | > 100 | – | > 100 | > 100 | – | – | – | – | – | – | – | –
COc1ncnc2c1cnn2Cc1cn(COCC(O)CO)nn1 (stereo not given) | > 100 | > 100 | > 100 | > 100 | > 100 | – | > 100 | > 100 | > 100 | – | – | – | – | – | – | – | – | –
Clc1ccccc1/C=C/c1nsc(/C=C/c2ccccc2Cl)n1 | > 100 | > 100 | 48.5 | > 100 | – | > 100 | > 100 | > 100 | > 100 | > 100 | – | – | – | – | – | – | – | –
CC(=O)OC1/C(=C/c2ccc([N+](=O)[O-])cc2)C[C@H]2[C@@H]3CC=C4C[C@@H](OC(C)=O)CC[C@]4(C)[C@H]3CC[C@]12C (stereo not given in full) | > 100 | > 100 | – | – | > 100 | 60.4 | > 100 | > 100 | > 100 | – | – | – | – | – | – | – | – | –
COc1cc2c(cc1OC)C1Cc3ccccc3CCN1CC2 (stereo not given) | > 100 | > 100 | > 100 | > 100 | > 100 | – | > 100 | > 100 | > 100 | > 100 | – | – | – | – | – | – | – | –
CC1=C2C(=O)O[C@@H](c3ccoc3)[C@]2(C)CCC1=O | > 100 | > 100 | > 100 | > 100 | > 100 | – | > 100 | > 100 | > 100 | > 100 | – | – | – | – | – | – | – | –
ClC(Cl)(Cl)C1CCOC1n1nc2ccccc2n1 (stereo not given) | > 100 | > 100 | > 100 | > 100 | > 100 | > 100 | > 100 | > 100 | – | > 100 | – | – | – | – | – | – | – | –
CCOc1cc(/C=N\N(C)C)cc(/C=N\N(C)C)c1O | 46.8 | > 100 | > 100 | > 100 | > 100 | – | > 100 | 65.4 | > 100 | 77.7 | – | – | – | – | – | – | – | –
CCOC(=O)C1(Cc2ccccc2)Cc2cc3c(cc2C1)CCC3 | > 100 | > 100 | > 100 | 58.6 | > 100 | – | 85.8 | > 100 | > 100 | – | – | – | – | – | – | – | – | –
Oc1c(C2=NNC(c3cccs3)C2)ccc2ccccc12 (stereo not given) | > 100 | – | 44 | 30.9 | > 100 | > 100 | 57.6 | 43.1 | > 100 | > 100 | – | – | – | – | – | – | – | –
CCC1(OC(=O)CN2CCN(CCO)CC2)C(=O)OCc2c1cc1n(c2=O)Cc2cc3ccccc3nc2-1 (stereo not given) | – | 55.9 | 26.2 | 1.59 | 2.43 | 3.27 | 15.6 | 1.73 | 0.851 | 1.92 | – | – | – | – | – | – | – | –
CCOC(=O)N1CCN(Cc2cc(=O)n3cc(C)ccc3n2)CC1 | > 100 | > 100 | > 100 | > 100 | > 100 | – | > 100 | > 100 | > 100 | > 100 | – | – | – | – | – | – | – | –
O=C(O)CCC(NC(=O)c1ccc(Nc2nc3ccccc3nc2C(=O)O)cc1)C(=O)O (stereo not given) | > 100 | > 100 | > 100 | > 100 | > 100 | – | > 100 | > 100 | > 100 | > 100 | – | – | – | – | – | – | – | –
CCOc1ccc(N2C(=O)C3c4[nH]c5ccccc5c4C4CCC(C(C)(C)C)CC4C3C2=O)cc1 (stereo not given) | – | > 100 | > 100 | > 100 | > 100 | 71 | > 100 | > 100 | > 100 | > 100 | – | – | – | – | – | – | – | –
COc1cc(C2CC(c3cccc(Nc4ccncc4)c3)=NN2c2cc(Cl)cc(Cl)c2)cc(OC)c1OC (stereo not given) | 2.91 | – | – | 3.57 | 3.38 | – | – | 3.2 | 2.79 | 3.06 | 1.53 | 1.53 | 1.79 | 1.72 | 1.31 | 1.44 | – | –
COc1cc2cc(Oc3ccc(NC(=O)Nc4ccc(F)c(C(F)(F)F)c4)cc3)c(C)nc2cc1OCCN1CCCCC1 | 2.78 | – | 3.79 | – | – | – | 3.29 | 3.08 | 2.73 | 2.6 | 1.47 | – | – | 1.68 | 1.33 | 1.41 | 1.29 | 1.8
Cc1ccc(S(=O)(=O)NC(=O)NC(CO)C(=O)O)cc1 (stereo not given) | – | – | > 100 | > 100 | > 100 | > 100 | > 100 | > 100 | > 100 | > 100 | – | – | – | – | – | – | – | –
